According to patent publication US10781204B2, “TYK2 inhibitors and uses thereof” (Nimbus Lakshmi, Inc., priority 2015, dated 2020):

Legend:
JAK2 = JAK2 (Homo sapiens (Human), UniProt O60674); test: JAK2 radioactive kinase assay; format: biochemical; conditions: ATP 10 μM
Description: (§1) Peptide substrate, [KKSRGDYMTMQIG], (20 μM) is prepared in reaction buffer (20 mM Hepes pH 7.5, 10 mM MgCl2, 1 mM EGTA, 0.02% Brij35, 0.02 mg/mL BSA, 0.1 mM […], 2 mM DTT, 1% DMSO. TYK2 (Invitrogen) kinase is added, followed by compounds in DMSO. ^33PATP is added to initiate the reaction with ATP at 10 μM. Kinase reaction is incubated for 120 min at room temp and reactions are spotted onto P81 ion exchange paper (Whatman #3698-915), and then washed extensively in 0.75% phosphoric acid, prior to reading the radioactivity counts. For JAK2 (Invitrogen) kinase assay the peptide substrate poly[Glu:Tyr] (4:1), 0.2 mg/ml is used, in the reaction carried out the same as for TYK2.

TYK2 = TYK2 (Homo sapiens (Human), UniProt P29597); test: Tyk2 radioactive kinase assay; format: biochemical; conditions: ATP 10 μM
Description: as §1

Chain of JAK2 (O60674 whole entry): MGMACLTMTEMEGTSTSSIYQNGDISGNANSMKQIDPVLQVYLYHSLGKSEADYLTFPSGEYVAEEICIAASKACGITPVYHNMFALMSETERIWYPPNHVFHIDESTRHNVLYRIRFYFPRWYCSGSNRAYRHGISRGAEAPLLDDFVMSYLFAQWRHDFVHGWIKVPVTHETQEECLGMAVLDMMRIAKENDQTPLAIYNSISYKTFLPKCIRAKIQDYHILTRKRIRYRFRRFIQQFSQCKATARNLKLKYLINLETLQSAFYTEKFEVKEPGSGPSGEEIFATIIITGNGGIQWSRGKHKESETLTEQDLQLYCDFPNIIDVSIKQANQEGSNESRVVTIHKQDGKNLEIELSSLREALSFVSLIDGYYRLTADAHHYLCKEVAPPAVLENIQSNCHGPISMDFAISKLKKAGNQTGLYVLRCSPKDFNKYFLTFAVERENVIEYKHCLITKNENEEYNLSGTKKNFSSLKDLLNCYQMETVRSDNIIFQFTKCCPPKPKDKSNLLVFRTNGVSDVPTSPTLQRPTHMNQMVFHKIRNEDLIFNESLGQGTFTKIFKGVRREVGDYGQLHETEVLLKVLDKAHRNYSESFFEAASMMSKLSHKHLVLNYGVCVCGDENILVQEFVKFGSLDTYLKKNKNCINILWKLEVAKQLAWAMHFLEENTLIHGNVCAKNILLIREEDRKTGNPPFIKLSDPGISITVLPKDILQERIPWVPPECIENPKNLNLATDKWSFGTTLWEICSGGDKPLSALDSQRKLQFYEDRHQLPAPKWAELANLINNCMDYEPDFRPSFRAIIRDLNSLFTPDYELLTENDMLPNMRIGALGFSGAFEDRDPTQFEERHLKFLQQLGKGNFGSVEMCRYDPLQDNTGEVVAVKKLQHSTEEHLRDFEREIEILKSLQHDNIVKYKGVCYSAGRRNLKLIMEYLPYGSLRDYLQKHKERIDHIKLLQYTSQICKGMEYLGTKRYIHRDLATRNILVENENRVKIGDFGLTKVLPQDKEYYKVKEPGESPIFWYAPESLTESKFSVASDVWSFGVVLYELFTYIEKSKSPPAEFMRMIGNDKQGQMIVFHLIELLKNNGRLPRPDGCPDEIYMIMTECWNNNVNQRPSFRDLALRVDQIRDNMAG
Chain of TYK2 (P29597 whole entry): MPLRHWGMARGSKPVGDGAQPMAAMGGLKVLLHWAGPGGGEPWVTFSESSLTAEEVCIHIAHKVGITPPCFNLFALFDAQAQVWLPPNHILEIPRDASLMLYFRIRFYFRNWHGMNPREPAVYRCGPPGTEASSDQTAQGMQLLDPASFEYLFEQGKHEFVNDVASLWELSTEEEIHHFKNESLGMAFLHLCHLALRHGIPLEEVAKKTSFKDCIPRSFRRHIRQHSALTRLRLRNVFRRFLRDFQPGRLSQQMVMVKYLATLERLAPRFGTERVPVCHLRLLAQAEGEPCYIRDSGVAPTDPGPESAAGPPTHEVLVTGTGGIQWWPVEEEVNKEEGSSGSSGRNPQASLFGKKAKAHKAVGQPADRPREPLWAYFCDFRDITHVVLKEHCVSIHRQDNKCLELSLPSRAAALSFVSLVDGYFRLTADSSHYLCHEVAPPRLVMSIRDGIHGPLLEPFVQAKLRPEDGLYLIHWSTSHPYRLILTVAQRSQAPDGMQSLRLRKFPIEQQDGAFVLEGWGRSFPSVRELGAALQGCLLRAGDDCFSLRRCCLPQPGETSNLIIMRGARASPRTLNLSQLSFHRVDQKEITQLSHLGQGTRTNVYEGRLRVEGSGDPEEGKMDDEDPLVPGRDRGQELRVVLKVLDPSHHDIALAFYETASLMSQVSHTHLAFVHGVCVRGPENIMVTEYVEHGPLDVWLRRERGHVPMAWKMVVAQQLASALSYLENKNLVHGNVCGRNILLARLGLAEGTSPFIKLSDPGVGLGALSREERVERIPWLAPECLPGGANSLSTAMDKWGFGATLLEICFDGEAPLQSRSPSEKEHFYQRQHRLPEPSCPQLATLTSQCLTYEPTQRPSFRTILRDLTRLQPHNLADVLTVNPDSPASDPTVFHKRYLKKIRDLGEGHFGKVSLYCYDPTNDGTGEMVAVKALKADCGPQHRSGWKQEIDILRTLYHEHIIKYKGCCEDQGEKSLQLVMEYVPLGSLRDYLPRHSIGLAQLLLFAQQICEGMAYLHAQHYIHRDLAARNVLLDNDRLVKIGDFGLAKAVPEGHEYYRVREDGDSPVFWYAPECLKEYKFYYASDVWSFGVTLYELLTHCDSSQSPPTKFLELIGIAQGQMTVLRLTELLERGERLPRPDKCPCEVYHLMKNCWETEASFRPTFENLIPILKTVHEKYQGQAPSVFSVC

| SMILES | Ki (JAK2) [nM] | Ki (TYK2) [nM] |
| --- | --- | --- |
| O=C1NCc2nc(-c3c(F)cccc3F)cc(-n3cccn3)c21 [I-58, 2-(2,6-difluorophenyl)-4-(1H-pyrazol-1-yl)-6,7-dihydro-5H-pyrrolo[3,4-b]pyridin-5-one] | 100 to 1000 | 10 to 100 |
| CN1CC(S(=O)(=O)N2CCN(c3ccn(-c4cc(-c5c(F)cccc5C#N)nc5c4C(=O)NC5)n3)CC2)C1 [I-99, 3-fluoro-2-(4-(3-(4-((1-methylazetidin-3-yl)sulfonyl)piperazin-1-yl)-1H-pyrazol-1-yl)-5-oxo-6,7-dihydro-5H-pyrrolo[3,4-b]pyridin-2-yl)benzonitrile] | ≥ 1000 | ≥ 1000 |
| C[C@@H]1CC(O)C[C@@H](C)N1c1ccn(-c2cc(-c3c(F)cccc3C#N)nc3c2C(=O)NC3)n1 (stereo partly drawn) [I-106, 3-fluoro-2-(4-(3-((2R,6R)-4-hydroxy-2,6-dimethylpiperidin-1-yl)-1H-pyrazol-1-yl)-5-oxo-6,7-dihydro-5H-pyrrolo[3,4-b]pyridin-2-yl)benzonitrile] | 100 to 1000 | 10 to 100 |
| CN1CCN(c2ccn(-c3cc(-c4c(F)cccc4F)nc4c3C(=O)NC4)n2)CC1 [I-5, 2-(2,6-difluorophenyl)-4-(3-(4-methylpiperazin-1-yl)-1H-pyrazol-1-yl)-6,7-dihydro-5H-pyrrolo[3,4-b]pyridin-5-one] | 100 to 1000 | 0.1 to 10 |
| N#Cc1cccc(F)c1-c1cc(-n2ccc(N3CCC4(CCNC4=O)C3)n2)c2c(n1)CNC2=O (stereo not drawn) [I-146, 3-fluoro-2-(5-oxo-4-(3-(6-oxo-2,7-diazaspiro[4.4]nonan-2-yl)-1H-pyrazol-1-yl)-6,7-dihydro-5H-pyrrolo[3,4-b]pyridin-2-yl)benzonitrile] | 10 to 100 | 0.1 to 10 |
| N#Cc1cccc(F)c1-c1cc(-n2ccc(CC(=O)O)n2)c2c(n1)CNC2=O [I-102, 2-(1-(2-(2-cyano-6-fluorophenyl)-5-oxo-6,7-dihydro-5H-pyrrolo[3,4-b]pyridin-4-yl)-1H-pyrazol-3-yl)acetic acid] | ≥ 1000 | 10 to 100 |
| C[C@]1(O)CN(c2ccn(-c3cc(-c4c(F)cccc4C#N)nc4c3C(=O)NC4)n2)C[C@@](C)(O)C1 [I-144, 2-(4-(3-((3S,5R)-3,5-dihydroxy-3,5-dimethylpiperidin-1-yl)-1H-pyrazol-1-yl)-5-oxo-6,7-dihydro-5H-pyrrolo[3,4-b]pyridin-2-yl)-3-fluorobenzonitrile] | 100 to 1000 | 10 to 100 |
| CCNC(=O)Cc1ccn(-c2cc(-c3c(F)cccc3C#N)nc3c2C(=O)NC3)n1 [I-7, 2-(1-(2-(2-cyano-6-fluorophenyl)-5-oxo-6,7-dihydro-5H-pyrro-lo[3,4-b]pyridin-4-yl)-1H-pyrazol-3-yl)-N-ethylacetamide] | 100 to 1000 | 0.1 to 10 |

Continued, values first:

| Ki (JAK2) [nM] | Ki (TYK2) [nM] | SMILES |
| --- | --- | --- |
| 10 to 100 | 0.1 to 10 | CC1(O)CCN(c2ccn(-c3cc(-c4c(F)cccc4C#N)nc4c3C(=O)NC4)n2)C1 (stereo not drawn) [I-87, 3-fluoro-2-(4-(3-(3-hydroxy-3-methylpyrrolidin-1-yl)-1H-pyrazol-1-yl)-5-oxo-6,7-dihydro-5H-pyrrolo[3,4-b]pyridin-2-yl)benzonitrile] |
| 10 to 100 | 0.1 to 10 | N#Cc1cccc(F)c1-c1cc(-n2ccc(N3CC[C@H](F)[C@H](O)C3)n2)c2c(n1)CNC2=O [I-174, 3-fluoro-2-(4-(3-((3R,4S)-4-fluoro-3-hydroxypiperidin-1-yl)-1H-pyrazol-1-yl)-5-oxo-6,7-dihydro-5H-pyrrolo[3,4-b]pyridin-2-yl)benzonitrile] |
| 10 to 100 | 0.1 to 10 | N#Cc1cccc(F)c1-c1cc(-n2ccc(NCCO)n2)c2c(n1)CNC2=O [I-64, 3-fluoro-2-(4-(3-((2-hydroxyethyl)amino)-1H-pyrazol-1-yl)-5-oxo-6,7-dihydro-5H-pyrrolo[3,4-b]pyridin-2-yl)benzonitrile] |
| 10 to 100 | 0.1 to 10 | CN(C)[C@H]1CC[C@H](Oc2ccn(-c3cc(-c4c(F)cccc4C#N)nc4c3C(=O)NC4)n2)CC1 [I-117, 2-(4-(3-(((1r,4r)-4-(dimethylamino)cyclohexyl)oxy)-1H-pyrazol-1-yl)-5-oxo-6,7-dihydro-5H-pyrrolo[3,4-b]pyridin-2-yl)-3-fluorobenzonitrile] |
